Data as given in patent US9895309B2, “Selenosugars for skin tissue repair” (SELENO THERAPEUTICS PTY LTD., priority 2014, dated 2018).

Assays:
db/db mice [1] = assay: Vascular perfusion of wounds by Doppler imaging, diabetic mice; assay type: in vivo; conditions: diabetic mouse wounds, p<0.05, FIG. 2
From the text: FIG. 2 illustrates vascular perfusion measured by Doppler imaging and corresponding to the selenosugar treated wound (1) and the untreated control wound (2) of the db^−/db^− mouse model of FIG. 1 (where * indicates p, 0.05, and n=6). Doppler imaging is a non-invasive technique used to evaluate blood flow velocity with red blood cells as the moving target;
(§1) In the experimental testing according to the present invention, pairs of circular incision wounds on the backs of wildtype C57/BL6 and db^−/db^− mice (n=12 each) were treated daily with a selenosugar according to the current invention or vehicle, topically for 10 days. Wound closure, vascular perfusion and tissue histology were assessed.

db/db mice [2] = assay: Tissue histology of diabetic wounds; assay type: in vivo, mouse; conditions: diabetic wounds vs vehicle
From the text: FIGS. 3 to 12 illustrate comparative tissue histology for (a) the wildtype and (b) db/db mouse models, both (i) non-treated mice, (ii) mice treated for 5 days and (iii) mice treated for 10 days. The figures also illustrate plots against time in days for the following wound parameters for (i), (ii) and (iii) (where * indicates p<0.05, ** indicates p<0.01, *** indicates p<0.001);
as §1

db/db mice [3] = assay: Wound closure, circular incision wounds, diabetic db/db mice, topical treatment; assay type: in vivo, mouse
Procedure: FIG. 1 illustrates wound closure observed in the db/db mouse models topically treated with a 1 mM saline solution of 1,4-anhydro-4-seleno-D-talitol (selenosugar) (b) and a non-selenium control sugar, 1,4-anydro-D-talitol (a).
as §1

[4] = system: indomethacin-induced stomach ulcers in mice; conditions: Chakraborty et al; cited from earlier work
wildtype mice = assay: Wound healing comparison of selenosugar with DHSred at the same dose, wildtype mice; assay type: in vivo, mouse; conditions: for Wound healing after topical application / Scar tissue formed during wound healing: same dose; for Wound healing after topical application / Pus formation in wound: FIG. 16; for Scar tissue formed during wound healing: FIG. 17; for Pus formation in wound: topical
From the text: FIG. 15 is a plot illustrating the performance of a selenosugar according to the present invention (1,4-anhydro-4-seleno-D-talitol) (8) against a similar water-soluble selenium compound that is not sugar derived (DHSred) (10) in non-diabetic (wt) mice over time. FIG. 15a illustrates % wound closure in terms of the wound size and FIG. 15b illustrates blood flow intensity (Doppler measurement) in arbitrary units where ** indicates p<0.01, *** p<0.001 and **** p<0.0001 and N=6;
FIG. 16 illustrates a wound treated with a selenosugar according to the present invention (ii) and a wound treated with DHSred (i) at the same dose.
FIG. 17 illustrates typical differences in scar tissue that forms during wound healing in wildtype mice having a wound treated with a selenosugar according to the present invention (ii) and a wound treated with DHSred (i) at the same dose.

wildtype C57/BL6 mice = assay: Wound closure, circular incision wounds, wildtype mice, topical treatment; assay type: in vivo, mouse
Procedure: as §1

[5] = wildtype mice, listed as DHSred

1,4-anhydro-4-seleno-D-talitol [Formula II]
Vascular perfusion (Doppler imaging) (db/db mice [1]): improved vascular perfusion | IL-6 level (tissue histology) (db/db mice [2]; FIG. 4, p<0.05): decreased | Elastin level (tissue histology) (db/db mice [2]; FIG. 6, p<0.01): increased | MCP-1 level (tissue histology) (db/db mice [2]; FIG. 9, p<0.001): decreased | MPO level (tissue histology) (db/db mice [2]; FIG. 10, p<0.001): decreased | vWF level (tissue histology) (db/db mice [2]; FIG. 12, p<0.01): decreased | Wound closure relative to control db/db mice (db/db mice [3]; day 4): 3 fold | Wound closure (db/db mice [3]; day 4, p<0.001 vs control db/db mice): 32% | Wound closure relative to control db/db mice (db/db mice [3]; day 10): 2 fold | Wound closure (db/db mice [3]; day 10, p<0.0001 vs control db/db mice): 83%

O[C@@H]1C[Se]C[C@H]1O (racemic) [Formula III, DL-trans-3,4-dihydroxy-1-selenolane]
Healing of indomethacin-induced stomach ulcers [4]: accelerate healing | Wound healing after topical application (wildtype mice; wildtype mice): reduced wound healing | Wound healing after topical application (wildtype mice; [5]): inferior healing | Scar tissue formed during wound healing (wildtype mice; wildtype mice): pronounced scar tissue build up | Pus formation in wound (wildtype mice; wildtype mice): observable pus formation | Pus formation in wound (wildtype mice; [5]): development of pus

OC[C@@H](O)[C@@H]1[Se]C[C@@H](O)[C@H]1O [Formula II, 1,4-anhydro-4-seleno-D-talitol]
Inflammatory response during tissue repair (wildtype mice; FIG. 16 and histology): anti-inflammatory response | Tissue repair during wound healing, formula II vs formula III (wildtype mice; wildtype mice, FIG. 15): superior | Wound healing after topical application (wildtype mice; wildtype mice): improved wound closure and healing | Scar tissue formed during wound healing (wildtype mice; wildtype mice): significantly less scar tissue | Wound closure relative to controls (wildtype C57/BL6 mice; day 4): 2 fold | Wound closure (wildtype C57/BL6 mice; day 4, daily topical treatment, p<0.05 vs controls): 32% | Wound closure (wildtype C57/BL6 mice; day 10, daily topical treatment, p<0.01 vs controls): 82%
